{
  "source": "patent US20180153995A1",
  "about": "“USE OF ANTIMICROBIAL POLYMERS FOR RE-SENSITIZATION OF MICROORGANISMS UPON EMERGENCE OF RESISTANCE TO ANTI-MICROBIAL AGENTS” (Technion Research & Development Foundation Limited, priority 2008, published 2018)",
  "key": {"S. aureus 17314": {"tested_on": "S. aureus 17314", "experiment": "Antibiotic MIC by microdilution with or without sub-MIC polymer", "assay_type": "cell-based, Staphylococcus aureus"}, "E. coli 16329": {"tested_on": "E. coli 16329", "assay_type": "cell-based, Escherichia coli", "description": "MICs were determined by microdilution susceptibility testing in 96-well plates (by Nunc) using inocula of 10^5 bacteria per ml. Cell populations were evaluated by optical density measurements at 620 nm and were calibrated against a set of standards. Hundred (100) μl of a bacterial suspension were added to 100 μl of culture medium (control) or to 100 μl of culture medium containing various polymer concentrations in 2-fold serial dilutions. Inhibition of proliferation was determined by optical density measurements at 620 nm after an incubation period of 24 hours at 37° C.\n100 μl of a bacterial suspension were added to 100 μl of culture medium (control) or to 100 μl of culture medium containing various antibiotic and C14(9-ene)KKNC12KNH2 (SEQ ID NO: 5) concentrations in 2-fold serial dilutions. Inhibition of proliferation was determined by optical density measurements at 620 nm after an incubation period of 24 hours at 37° C."}, "E. coli 16327": {"tested_on": "E. coli 16327", "experiment": "microbe, parasite or virus in culture"}, "[1]": {"tested_on": "E. coli K-12 efflux knockout mutant", "assay_type": "cell-based, Escherichia coli", "settings": "E. coli AG100A (efflux−)", "how_it_was_run": "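Broth microdilution, inocula 10^5 bacteria/ml, 24 h at 37 °C. Growth read as OD620 against calibration standards.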"}, "S. aureus 15819": {"tested_on": "S. aureus 15819", "experiment": "Antibiotic MIC by microdilution with or without sub-MIC polymer", "assay_type": "cell-based, Staphylococcus aureus", "settings": "S. aureus 15819"}},
  "note": "Where “and” joins values, the source holds several entries; their conditions need not be identical. Identical values can stand only once. Like-named read-outs stand apart in the source and are kept apart here.",
  "data": [
    {"smiles": "Cc1onc(-c2ccccc2)c1C(=O)N[C@@H]1C(=O)N2[C@@H]1SC(C)(C)[C@@H]2C(=O)O", "note": "[Oxacillin, oxacillin]", "values": [
      {"measurement": "Antibiotic MIC", "setting": "S. aureus 17314", "result": "0.125 to 0.25", "unit": "µg/mL"},
      {"measurement": "Antibiotic MIC", "setting": "S. aureus 17314; S. aureus 17314, +¼ MIC (1.6 μM) C12K(KNC12K)2NH2", "result": "0.125 to 0.25", "unit": "µg/mL"},
      {"measurement": "Antibiotic MIC", "setting": "S. aureus 17314; S. aureus 17314, +¼ MIC (1.6 μM) C12KKNC12KNH2", "result": 0.25, "unit": "µg/mL"},
      {"measurement": "Antibiotic MIC", "setting": "S. aureus 17314; S. aureus 17314, +¼ MIC (1.6 μM) C16(9-ene)KKNC12KNH2", "result": 0.25, "unit": "µg/mL"},
      {"measurement": "Antibiotic MIC", "setting": "S. aureus 17314; S. aureus 17314, +½ MIC (3.12 μM) C12K(KNC12K)2NH2", "result": "0.125 to 0.25", "unit": "µg/mL"},
      {"measurement": "Antibiotic MIC", "setting": "S. aureus 17314; S. aureus 17314, +½ MIC (3.12 μM) C12KKNC12KNH2", "result": 0.25, "unit": "µg/mL"},
      {"measurement": "Antibiotic MIC", "setting": "S. aureus 17314; S. aureus 17314, +½ MIC (3.12 μM) C16(9-ene)KKNC12KNH2", "result": 0.06, "unit": "µg/mL"},
      {"measurement": "Antibiotic MIC", "setting": "S. aureus 17314; S. aureus 17314, +⅓ MIC (2.1 μM) C12K(KNC12K)2NH2", "result": "0.125 to 0.25", "unit": "µg/mL"},
      {"measurement": "Antibiotic MIC", "setting": "S. aureus 17314; S. aureus 17314, +⅓ MIC (2.1 μM) C12KKNC12KNH2", "result": 0.25, "unit": "µg/mL"},
      {"measurement": "Antibiotic MIC", "setting": "S. aureus 17314; S. aureus 17314, +⅓ MIC (2.1 μM) C16(9-ene)KKNC12KNH2", "result": 0.25, "unit": "µg/mL"},
      {"measurement": "Antibiotic MIC", "setting": "S. aureus 17314; S. aureus 17314, no polymer (None), Table 9", "result": 0.25, "unit": "µg/mL"},
      {"measurement": "Antibiotic MIC", "setting": "S. aureus 17314; S. aureus 17314, no polymer (None), Table 10", "result": "0.25 to 0.5", "unit": "µg/mL"},
      {"measurement": "Antibiotic MIC", "setting": "S. aureus 17314; S. aureus 17314, no polymer (None), Table 11", "result": 0.25, "unit": "µg/mL"},
      {"measurement": "Antibiotic MIC", "setting": "S. aureus 17314; S. aureus 17314, no polymer (None), Table 12", "result": 0.25, "unit": "µg/mL"},
      {"measurement": "Antibiotic MIC", "setting": "E. coli 16329", "result": ">512", "unit": "µg/mL"},
      {"measurement": "Antibiotic MIC", "setting": "E. coli 16329; E. coli 16329, no polymer (None), Table 10", "result": ">512", "unit": "µg/mL"},
      {"measurement": "Antibiotic MIC", "setting": "E. coli 16329; E. coli U-16329, +¼ MIC C12K(NC8K)5NH2", "result": ">512", "unit": "µg/mL"},
      {"measurement": "Antibiotic MIC", "setting": "E. coli 16329; E. coli U-16329, +½ MIC C12K(NC8K)5NH2", "result": ">512", "unit": "µg/mL"},
      {"measurement": "Antibiotic MIC", "setting": "E. coli 16329; E. coli U-16329, +⅓ MIC C12K(NC8K)5NH2", "result": ">512", "unit": "µg/mL"},
      {"measurement": "Antibiotic MIC, None", "setting": "E. coli 16329; E. coli U-16329, antibiotic alone (Table 15)", "result": ">512", "unit": "µg/mL"},
      {"measurement": "Antibiotic MIC", "setting": "E. coli 16329; E. coli U-16329, no polymer (None), Table 14", "result": ">512", "unit": "µg/mL"},
      {"measurement": "Antibiotic MIC in presence of C12K(NC8K)7NH2 (SEQ ID NO: 4), +¼ MIC", "setting": "E. coli 16329; E. coli U-16329, polymer at ¼ of its MIC", "result": ">512", "unit": "µg/mL"},
      {"measurement": "Antibiotic MIC in presence of C12K(NC8K)7NH2 (SEQ ID NO: 4), +½ MIC", "setting": "E. coli 16329; E. coli U-16329, polymer at ½ of its MIC", "result": 512, "unit": "µg/mL"},
      {"measurement": "Antibiotic MIC in presence of C12K(NC8K)7NH2 (SEQ ID NO: 4), +⅓ MIC", "setting": "E. coli 16329; E. coli U-16329, polymer at ⅓ of its MIC", "result": ">512", "unit": "µg/mL"},
      {"measurement": "Antibiotic MIC", "setting": "E. coli 16327", "result": "512 µg/mL and >512 µg/mL"},
      {"measurement": "Antibiotic MIC", "setting": "E. coli 16327; E. coli 16327, +¼ MIC (1.6 μM) C12K(KNC12K)2NH2", "result": ">512", "unit": "µg/mL"},
      {"measurement": "Antibiotic MIC", "setting": "E. coli 16327; E. coli 16327, +½ MIC (3.12 μM) C12K(KNC12K)2NH2", "result": 512, "unit": "µg/mL"},
      {"measurement": "Antibiotic MIC", "setting": "E. coli 16327; E. coli 16327, +⅓ MIC (2.1 μM) C12K(KNC12K)2NH2", "result": ">512", "unit": "µg/mL"},
      {"measurement": "Antibiotic MIC", "setting": "E. coli 16327; E. coli 16327, no polymer (None), Table 9", "result": ">512", "unit": "µg/mL"},
      {"measurement": "Antibiotic MIC", "setting": "E. coli 16327; E. coli 16327, no polymer (None), Table 10", "result": ">512", "unit": "µg/mL"},
      {"measurement": "Antibiotic MIC", "setting": "E. coli 16327; E. coli 16327, no polymer (None), Table 12", "result": ">512", "unit": "µg/mL"},
      {"measurement": "MIC, ¼ + MIC OAK", "setting": "E. coli 16327; E. coli U16327, with C12K(KNC10K)3NH2 (SEQ ID NO: 10) at ¼ of its MIC", "result": ">512", "unit": "µg/mL"},
      {"measurement": "MIC, ⅓ + MIC OAK", "setting": "E. coli 16327; E. coli U16327, with C12K(KNC10K)3NH2 (SEQ ID NO: 10) at ⅓ of its MIC", "result": ">512", "unit": "µg/mL"},
      {"measurement": "Antibiotic MIC, None", "setting": "E. coli 16327; E. coli U-16327, antibiotic alone (Table 15)", "result": ">512", "unit": "µg/mL"},
      {"measurement": "Antibiotic MIC in presence of C12K(NC8K)7NH2 (SEQ ID NO: 4), +¼ MIC", "setting": "E. coli 16327; E. coli U-16327, polymer at ¼ of its MIC", "result": ">512", "unit": "µg/mL"},
      {"measurement": "Antibiotic MIC in presence of C12K(NC8K)7NH2 (SEQ ID NO: 4), +½ MIC", "setting": "E. coli 16327; E. coli U-16327, polymer at ½ of its MIC", "result": 512, "unit": "µg/mL"},
      {"measurement": "Antibiotic MIC in presence of C12K(NC8K)7NH2 (SEQ ID NO: 4), +⅓ MIC", "setting": "E. coli 16327; E. coli U-16327, polymer at ⅓ of its MIC", "result": ">512", "unit": "µg/mL"},
      {"measurement": "MIC", "setting": "E. coli 16327; Escherichia coli, 16327, read-out: MIC, Alone", "result": "> 512", "unit": "µg/mL"},
      {"measurement": "Antibiotic MIC, None", "setting": "[1]; antibiotic alone (Table 16)", "result": "0.5 to 1", "unit": "µg/mL"},
      {"measurement": "Antibiotic MIC, None", "setting": "[1]; antibiotic alone (Table 17)", "result": "0.5 to 1", "unit": "µg/mL"},
      {"measurement": "Antibiotic MIC in presence of C12K(NC8K)7NH2 (SEQ ID NO: 4), +¼ MIC", "setting": "[1]; polymer at ¼ of its MIC (Table 16)", "result": "0.5 to 1", "unit": "µg/mL"},
      {"measurement": "Antibiotic MIC in presence of C12K(NC8K)7NH2 (SEQ ID NO: 4), +½ MIC", "setting": "[1]; polymer at ½ of its MIC (Table 16)", "result": 0.25, "unit": "µg/mL"},
      {"measurement": "Antibiotic MIC in presence of C12K(NC8K)7NH2 (SEQ ID NO: 4), +⅓ MIC", "setting": "[1]; polymer at ⅓ of its MIC (Table 16)", "result": 0.25, "unit": "µg/mL"},
      {"measurement": "Antibiotic MIC in presence of the OAK, +¼ MIC", "setting": "[1]; the OAK at ¼ of its MIC (Table 17)", "result": 0.5, "unit": "µg/mL"},
      {"measurement": "Antibiotic MIC in presence of the OAK, +½ MIC", "setting": "[1]; the OAK at ½ of its MIC (Table 17)", "result": 0.25, "unit": "µg/mL"},
      {"measurement": "Antibiotic MIC in presence of the OAK, +⅓ MIC", "setting": "[1]; the OAK at ⅓ of its MIC (Table 17)", "result": 0.5, "unit": "µg/mL"},
      {"measurement": "Antibiotic MIC", "setting": "S. aureus 15819; +¼ MIC (1.6 μM) C12(5-ene)KKNC12KNH2", "result": 2, "unit": "µg/mL"},
      {"measurement": "Antibiotic MIC", "setting": "S. aureus 15819; +¼ MIC (1.6 μM) C12K(KNC12K)3NH2", "result": 4, "unit": "µg/mL"},
      {"measurement": "Antibiotic MIC", "setting": "S. aureus 15819; +¼ MIC (1.6 μM) C12KKNC12KNH2", "result": 8, "unit": "µg/mL"},
      {"measurement": "Antibiotic MIC", "setting": "S. aureus 15819; +½ MIC (3.12 μM) C12(5-ene)KKNC12KNH2", "result": 1, "unit": "µg/mL"}
    ]}
  ]
}
